A word on the IC50: it is the concentration that inhibits the measured activity by half. For orientation: Ki means the equilibrium dissociation constant of an inhibitor or competing ligand from its target. Read a low Ki as a stronger hold on the target.

The test system of data set [1] is [^3 H]-adenosine uptake in erythrocytes. The data set is described as follows: Inhibitory Effect on [^3 H]-Adenosine Uptake (washed erythrocytes). Type of data set: cell-based, human (healthy male adult). As to conditions: Homo sapiens; erythrocyte suspension, 1 hour preincubation at room temperature, 10 seconds uptake; read-out: [^3 H]-Adenosine Uptake Inhibition IC50. How it is done:
A blood sample was obtained from a healthy adult under 40 years of age by brachial venipuncture using a syringe containing sodium citrate and subjected to centrifugation to obtain washed erythrocytes. […] Ten seconds later, 200 μl of a dilazep solution (1 mg/ml) was added to stop the reaction. […] The supernatant was removed and the erythrocyte fraction was separated. […] The concentration of the test compound which inhibits the [^3 H]-adenosineuptake by 50% (IC50) was calculated.

Data set [2] addresses T1, [^3 H]-Nitrobenzylthioinosine (NBI) binding, cerebral cortex homogenate (Cavia porcellus, UniProt H0V4R7).
T1 construct: The cerebral cortex of a male guinea pig of Hartley strain was homogenized; from tissue; host or cells: cerebral cortex of male Hartley guinea pig (washed membrane precipitate)
T1 sequence (H0V4R7 1-461): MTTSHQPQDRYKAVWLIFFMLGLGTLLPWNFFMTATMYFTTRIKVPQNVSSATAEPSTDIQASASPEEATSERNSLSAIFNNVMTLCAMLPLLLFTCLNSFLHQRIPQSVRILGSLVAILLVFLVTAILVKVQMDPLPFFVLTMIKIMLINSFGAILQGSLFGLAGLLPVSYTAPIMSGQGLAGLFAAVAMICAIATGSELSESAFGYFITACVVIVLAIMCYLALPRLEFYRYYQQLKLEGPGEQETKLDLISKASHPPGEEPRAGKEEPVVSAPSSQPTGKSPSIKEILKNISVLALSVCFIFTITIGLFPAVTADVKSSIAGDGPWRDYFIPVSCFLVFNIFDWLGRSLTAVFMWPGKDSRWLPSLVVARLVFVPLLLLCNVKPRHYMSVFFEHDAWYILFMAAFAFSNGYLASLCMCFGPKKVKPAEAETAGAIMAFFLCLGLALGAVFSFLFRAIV
The data set is described as follows: Inhibitory Effect on [^3 H]-Nitrobenzylthioinosine (NBI) Binding. Set-up: species or system guinea pig (male, Hartley strain). As to conditions: guinea pig cerebral cortex, 1.5 nM [^3 H]-NBI, 25° C., 30 minutes, Cheng-Prusoff. As to the method: The cerebral cortex of a male guinea pig of Hartley strain was homogenized with an ice-cooled 50 mM tris-HCl buffer (pH 7.4) in an amount of 25 times (w/v) that of the tissue. The homogenate was centrifuged (30,000×g, 4° C., 20 mins.), and the supernatant was discarded. To the precipitate was added the same amount of the buffer, followed by homogenization and then centrifugation in the same manner as above. The obtained precipitate was suspended in 20 times as much buffer as the precipitate to prepare a suspension for testing. To a DMSO solution of a test compound were added 1.5 nM of [^3 H]-NBI and 5 mg (wet basis) of the tissue homogenate, and the mixture was allowed to stand at 25° C. for 30 minutes. To the mixture was added 4 ml of an ice-cooled buffer, followed by rapid filtration with suction through a glass filter (GF/C, produced by Whatman Ltd.) or a Ready filter (produced by Beckman Co.) to stop the reaction. The filter was transferred to a scintillation vial, and after drying, Scintisol EX-H was added thereto. The radioactivity was measured with a liquid scintillation counter. The binding inhibitory activity was expressed in terms of an inhibition constant (Ki value) as calculated according to Cheng-Prusoff's formula.

The next data set relates to dd-strain male mice. The data set is described as follows: Acute Toxicity Test. As to conditions: mortality seven days after administration. The class given is in vivo. As to the method: A test compound was orally or intraperitoneally administered to groups of dd-strain male mice weighing 20±1 g, each group consisting of three mice. […] The MLD was >1000 mg/kg for oral administration of Compound 10 and was >100 mg/kg for intraperitoneal administration of Compound 10.

For data set [3], the system named is Masugi Nephritis in ddY-strain male mice. The data set is described as follows: Effect on Increase of Albumin Excretion in Masugi Nephritis. Type of data set: in vivo, mouse. As to the method:
Mouse nephrotoxin (hereinafter referred to as NT) was prepared according to the method of Ito, et al. [The Japanese Journal of Nephrology, 23, 25-36 (1981)]. That is, glomerular basement membrane (hereinafter referred to as GBM) was isolated from mouse kidney and digested with trypsin (Sigma). The digested GBM was subjected to ultracentrifugation under cooling, and the supernatant was dialyzed against distilled water, followed by lyophilization. The lyophile product was intracutaneously injected as an antigen into four foot pads of a rabbit together with Freund's complete adjuvant (Iatron; hereinafter referred to as FCA) once a week for 4 weeks for immunization. The whole blood was drawn from the immunized rabbit, and serum was separated and inactivated at 56° C. for 30 minutes to prepare NT.
In this test, ddY-strain male mice weighing 29-36 g were used. For previous immunization, 0.25 ml of an FCA emulsion containing 0.25 mg of rabbit immunoglobulin-globulin (IgG, Sigma) was intraperitoneally injected into mice. Nephritis was induced by intravenous injection of 0.075 ml of NT through the tail vein 4 and 11 days after the previous immunization. […] The supernatant was analyzed for albumin using an autoanalyzer (Olympus). […]
The results are shown in Table 7 as the means±standard error of each group consisting of 11 mice. Statistical significance was evaluated by Student's t-test.

Data set [4] deals with Diabetic Nephropathy (STZ) in ddY-strain male mice. The data set is described as follows: Effect on Increase of Albumin Excretion in Diabetic Nephropathy. As to conditions: for Urinary Albumin Content: mean, standard error, control 333 ± 30, normal 80 ± 3. The class given is in vivo, mouse. As to the method: In this test, ddY-strain male mice weighing 25-28 g were used. Diabetes was induced according to the method of Tsuchida, et al. [Jin To Toseki (Kidney and Dialysis), 31, 363-366 (1991)]. That is, streptozotocin (5 mg/ml, Sigma; hereinafter referred to as STZ) dissolved in 0.05 M citrate buffer was intravenously injected into mice through the tail vein at a dose of 10 ml/kg. On the fourth day after the STZ administration, 30 μl of blood was collected from the tail vein of the mice and the blood glucose was determined using Glutestsensor (Sanwa Kagaku). The animals were divided into three groups based on the blood glucose level. Twelve weeks after the STZ administration, each mouse was put into a metabolic cage and received oral administration of 0.5 ml/10 g of distilled water twice at an interval of 12 hours. Urine was collected for 24 hours, and after measurement of the volume, the urine was centrifuged under cooling (3000 rpm, 4° C. ) for 5 minutes. The supernatant was analyzed for albumin using an autoanalyzer (Olympus). A test compound was orally administered once a day for 11 weeks, starting on the fifth day after the STZ administration. The normal group and the control group received oral administration of a solvent (5% methyl cellulose solution). The results are shown in Table 8 as the means standard error of each group. Statistical significance was evaluated by Aspin-Welch's test for the difference between the control group and the normal group and by Steel's test for the difference between the control group and the test compound-administered group.

`COc1cc2nc(N3CCOCC3)nc(N3CCC(n4c(=O)c5cc(C)ccc5n(C)c4=O)CC3)c2cc1OC` [Compound 1, 3-[1-(6,7-Dimethoxy-2-morpholino-4-quinazolinyl)-4-piperidinyl]-1,2,3,4-tetrahydro-1,6-dimethyl-2,4-dioxoquinazoline]: the IC50 in data set [1] was found to be 35 nM. The molecule further gave a Ki in data set [2] of 2 nM.
Turning to `COc1cc2nc(N3CCN(C)CC3)nc(N3CCC(n4c(=O)c5cc(C)ccc5n(C)c4=O)CC3)c2cc1OC` [Compound 2, 3-{1-[6,7-Dimethoxy-2-(4-methyl-1-piperazinyl)-4-quinazolinyl]-4-piperidinyl}-1,2,3,4-tetrahydro-1,6-dimethyl-2,4-dioxoquinazoline], the concentration for half-maximal inhibition (IC50) in data set [1] was 64 nM.
`CCOC(=O)C1CCN(c2nc(N3CCC(n4c(=O)c5cc(C)ccc5n(C)c4=O)CC3)c3cc(OC)c(OC)cc3n2)CC1` [Compound 3, 3-{1-[2-(4-Ethoxycarbonylpiperidino)-6,7-dimethoxy-4-quinazolinyl]-4-piperidinyl}-1,2,3,4-tetrahydro-1,6-dimethyl-2,4-dioxoquinazoline] returned a Ki in data set [2] of 7.6 nM.
For `COc1cc2nc(N3CCC(C(=O)O)CC3)nc(N3CCC(n4c(=O)c5cc(C)ccc5n(C)c4=O)CC3)c2cc1OC` [Compound 4, 3-{1-[2-(4-Carboxypiperidino)-6,7-dimethoxy-4-quinazolinyl]-4-piperidinyl}-1,2,3,4-tetrahydro-1,6-dimethyl-2,4-dioxoquinazoline], the IC50 in data set [1] was found to be 72 nM.
Consider `COc1cc2nc(N(C)C)nc(N3CCC(n4c(=O)c5cc(C)ccc5n(C)c4=O)CC3)c2cc1OC` [Compound 5, 3-[1-(2-Dimethylamino-6,7-dimethoxy-4-quinazolinyl)-4-piperidinyl]-1,2,3,4-tetrahydro-1,6-dimethyl-2,4-dioxoquinazoline], for which, in data set [2], the Ki was determined as 2.6 nM.
In the case of `COc1cc2nc(N(CCO)CCO)nc(N3CCC(n4c(=O)c5cc(C)ccc5n(C)c4=O)CC3)c2cc1OC` [Compound 6, 3-{1-[2-Bis(2-hydroxyethyl)amino-6,7-dimethoxy-4-quinazolinyl]-4-piperidinyl}-1,2,3,4-tetrahydro-1,6-dimethyl-2,4-dioxoquinazoline], in data set [1], the IC50 was 29 nM. Further, the Ki in data set [2] came to 1.5 nM.
On the same counts, the results for `COc1cc2nc(N(C)CCN(C)C)nc(N3CCC(n4c(=O)c5cc(C)ccc5n(C)c4=O)CC3)c2cc1OC` [Compound 7, 3-{1-{2-[N-(2-Dimethylaminoethyl)-N-methylamino]-6,7-dimethoxy-4-quinazolinyl}-4-piperidinyl}-1,2,3,4-tetrahydro-1,6-dimethyl-2,4-dioxoquinazoline] are 62 nM and 3.8 nM.
Regarding `CCCNc1nc(N2CCC(n3c(=O)c4cc(C)ccc4n(C)c3=O)CC2)c2cc(OC)c(OC)cc2n1` [Compound 8, 3-[1-(6,7-Dimethoxy-2-propylamino-4-quinazolinyl)-4-piperidinyl]-1,2,3,4-tetrahydro-1,6-dimethyl-2,4-dioxoquinazoline], in data set [1], the half-maximal inhibitory concentration (IC50) was 50 nM. The molecule also registered a Ki in data set [2] of 1.4 nM.
As to `CCOc1cc2nc(N3CCOCC3)nc(N3CCC(n4c(=O)c5cc(C)ccc5n(C)c4=O)CC3)c2cc1OCC.Cl` [Compound 10, 3-[1-(6,7-Diethoxy-2-morpholino-4-quinazolinyl)-4-piperidinyl]-1,2,3,4-tetrahydro-1,6-dimethyl-2,4-dioxoquinazoline hydrochloride], the half-inhibitory concentration (IC50) in data set [1] turned out to be 97 nM. The Ki in data set [2] is 2 nM. Further, in the data set on dd-strain male mice (intraperitoneal), the “minimum lethal dose (MLD), intraperitoneal” value is more than 100 mg/kg. In addition, the “minimum lethal dose (MLD), oral” value with dd-strain male mice (oral) is more than 1000 mg/kg. In addition, the “Urinary Albumin Content” value in data set [3] (1 mg/kg oral once a day, mean ± standard error, 11 mice, control 134 ± 9, normal 85 ± 5, marked **) was found to be 96 ± 7 mg/kg/24 hr; in data set [4] (1 mg/kg oral once a day for 11 weeks, 10 animals, * less than 5% vs control), 244 ± 16 mg/kg/24 hr; in data set [4] (10 mg/kg oral once a day for 11 weeks, 9 animals, ** less than 1% vs control) it was 200 ± 13 mg/kg/24 hr. Further, the “effect on increase of urinary albumin in nephritis (in words)” value in data set [3] (Masugi nephritis, mice) is reported as “inhibits the increase of urinary albumin in nephritis”. Moreover, the “effect on increase of urinary albumin in diabetic nephropathy (in words)” value in data set [4] (STZ diabetic nephropathy, mice) was “inhibits the increase of urinary albumin in diabetic nephropathy”.

The values are drawn from patent US5948784A, “Quinazoline derivatives” (Kyowa Hakko Kogyo Co., Ltd., priority 1994, dated 1999).
